Experimental data as given in patent US12293809B2, “Workflow for generating compounds with biological activity against a specific biological target” (INSILICO MEDICINE IP LIMITED, priority 2019, dated 2025).

Legend:
hDDR2 = molecular target: T1, hDDR2 (Homo sapiens, UniProt Q16832); assay: KinaseProfiler radiometric biochemical kinase assay (Eurofins)
T1 construct: purchased Eurofins
T1 sequence (Q16832 22-855): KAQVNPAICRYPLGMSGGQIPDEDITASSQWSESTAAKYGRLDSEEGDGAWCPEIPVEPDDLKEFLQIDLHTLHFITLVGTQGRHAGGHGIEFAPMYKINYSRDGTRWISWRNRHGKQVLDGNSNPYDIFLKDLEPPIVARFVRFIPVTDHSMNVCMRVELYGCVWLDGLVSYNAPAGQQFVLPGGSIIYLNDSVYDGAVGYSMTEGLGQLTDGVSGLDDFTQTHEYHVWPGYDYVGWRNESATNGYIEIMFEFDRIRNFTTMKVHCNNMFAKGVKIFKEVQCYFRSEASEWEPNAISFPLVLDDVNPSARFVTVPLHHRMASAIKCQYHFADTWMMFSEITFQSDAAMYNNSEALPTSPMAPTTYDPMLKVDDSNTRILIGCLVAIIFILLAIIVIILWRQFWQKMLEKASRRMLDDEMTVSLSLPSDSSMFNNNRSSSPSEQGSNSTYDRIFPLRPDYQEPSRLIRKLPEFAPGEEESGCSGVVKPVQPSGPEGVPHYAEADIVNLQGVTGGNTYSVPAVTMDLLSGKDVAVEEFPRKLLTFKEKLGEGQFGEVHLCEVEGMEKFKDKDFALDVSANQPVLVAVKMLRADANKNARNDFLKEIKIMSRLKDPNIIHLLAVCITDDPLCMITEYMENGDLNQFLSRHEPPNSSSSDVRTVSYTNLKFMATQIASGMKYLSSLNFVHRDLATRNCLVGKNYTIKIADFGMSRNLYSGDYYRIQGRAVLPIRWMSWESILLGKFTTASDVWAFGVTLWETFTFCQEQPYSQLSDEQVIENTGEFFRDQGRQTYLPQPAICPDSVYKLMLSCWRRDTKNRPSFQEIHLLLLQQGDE
Procedure: The experimental procedures were performed by Eurofins. The activity of the molecules against hDDR1 and hDDR2 kinases was assessed using KinaseProfiler^67. […] The enzymatic reaction processed in the presence of Mg^2+ cations and ATP at room temperature for 40 minutes and terminated by addition of phosphoric acid. […] All the compounds were prepared in 100% DMSO. […] The biological evaluation of selectivity against non-target kinases was performed in Dundee Eurofins, using Scan Max Delta Panel [10 μM ATP] KinaseProfiler^68.

[1] = system: CTGF expression in MRC-5 cells; assay: MRC-5 fibrosis assay, TGF-β stimulated (Western blot); type: cell-based
Procedure: (§1) After 20 h growth in the reduced serum medium, the cells were treated with indicated doses of compounds for 30 minutes. Subsequently, the cells were stimulated with 10 ng/mL TGF-β (R&D Systems, 240-B-002) for 48 or 72 hours.

[2] = system: α-actin expression in MRC-5 cells; assay: as above; type: cell-based
Procedure: as §1

LX-2 cells = assay: Cytotoxicity, CellTiter-Glo cell viability assay; type: cell-based, human; conditions: 72 h
Procedure: LX-2 cells were seeded into 96 well plates in the presence of a compound and allowed to grow for 72 h before CellTiter-Glo® Luminescent Cell Viability Assay was carried out according the manufacturer's instruction.

CYP1A2 = molecular target: T2, CYP1A2 (Homo sapiens, UniProt P05177); assay: Cytochrome inhibition in HLM; type: in vitro ADME
T2 construct: from tissue; host or cells: human liver microsomes (HLM)
T2 sequence (P05177 1-516): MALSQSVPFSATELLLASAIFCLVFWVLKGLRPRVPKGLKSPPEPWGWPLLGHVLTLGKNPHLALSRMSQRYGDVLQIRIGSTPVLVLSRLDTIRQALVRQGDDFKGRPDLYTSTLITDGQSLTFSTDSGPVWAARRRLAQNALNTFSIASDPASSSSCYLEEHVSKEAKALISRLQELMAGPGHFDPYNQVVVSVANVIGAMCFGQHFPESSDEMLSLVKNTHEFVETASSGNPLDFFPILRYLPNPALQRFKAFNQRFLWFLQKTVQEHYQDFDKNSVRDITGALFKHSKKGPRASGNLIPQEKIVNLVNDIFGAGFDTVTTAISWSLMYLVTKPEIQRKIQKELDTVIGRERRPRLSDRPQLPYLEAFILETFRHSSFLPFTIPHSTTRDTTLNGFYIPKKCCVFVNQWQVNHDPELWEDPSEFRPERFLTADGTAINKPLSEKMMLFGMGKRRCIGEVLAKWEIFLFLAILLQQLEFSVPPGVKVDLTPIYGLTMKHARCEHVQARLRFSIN
Procedure: Water used in the assay and analysis was purified by ELGA Lab purification systems. Potassium phosphate buffer (PB) in concentration of 100 mM and MgCl2 in concentration of 33 mM were used. […] Microsomes were pulled out of the −80° C. freezer to thaw on ice, labeled the date and put back to freezer immediately after using. 20 μL of the substrates solutions were added to corresponding wells. 20 μL PB were added to Blank wells. 2 μL of the test compounds and positive control working solution were added to corresponding wells. Then, HLM working solution was prepared. 158 μL of the HLM working solution was added to all wells of incubation plate. The plate was pre-warmed for about 10 min at 37° C. water bath. Then, NADPH cofactor solution was prepared. 20 μL NADPH cofactor was added to all incubation wells. The solution was mixed and incubated for 10 minutes at 37° C. water bath. At the time point, the reaction was terminated by adding 400 μL cold stop solution (200 ng/mL Tolbutamide and 200 ng/mL Labetalol in ACN). The samples were centrifuged at 4000 rpm for 20 minutes to precipitate protein. 200 μL supernatant was transferred to 100 μL HPLC water and shaken for 10 min. XL fit was used to plot the percent of vehicle control versus the test compound concentrations, and for non-linear regression analysis of the data.

With Cc1ccc2c(Nc3cccc(C(F)(F)F)c3)noc2c1C#Cc1cnc2cccnn12 [Compound 1] the “activity towards DDR2 weaker than for DDR1” value (hDDR2; DDR2 vs DDR1) was 23 times, the “effect on CTGF expression” value ([1]; all the concentrations used) was “no inhibition potency” and the “dose dependence of effect on α-actin expression” value ([2]; MRC-5) was “robust dose-dependent effect”. It also gave a CC50 (LX-2 cells) of 3.3 µM and an IC50 (CYP1A2) of 7.36 µM.

O=C(Nc1cccc(C(=O)N2CCN(c3ccnc4[nH]ccc34)C2)c1)c1cccc(C(F)(F)F)c1 [Compound 2] was tested, and the “SI (selectivity index) DDR2 vs DDR1” value (hDDR2) was 3.6, the IC50 (hDDR2; read-out: IC50 towards DDR2 kinase) was 0.076 µM and the “concentration of highest activity in CTGF assay (close to negative control)” value ([1]; MRC-5) was 0.041 µM. For the same compound, the “concentration of maximum inhibition of α-actin expression” value ([2]; MRC-5) was 0.37 µM, the “maximum effect on α-actin expression” value ([2]; at 0.37 μM) was 1.5 fold and the CC50 (LX-2 cells) was 7.3 µM. For the same compound, the IC50 (CYP1A2) was 10.6 µM.
